Molecular target: T1, Human plasma kallikrein (Homo sapiens, UniProt P03952)
T1 construct: yields a heavy chain (371 amino acids) and a light chain (248 amino acids); purchased Enzyme Research Laboratories
Experiment: Plasma Kallikrein Assay
Format: biochemical
Details: purified Human plasma kallikrein 0.5 nM, substrate Acetyl-K-P-R-AFC, pH 7.4
Protocol: The effectiveness of a compound of the present invention as an inhibitor of plasma kallikrein can be determined using a relevant purified serine protease, and an appropriate synthetic substrate. The rate of hydrolysis of the chromogenic or fluorogenic substrate by the relevant serine protease was measured both in the absence and presence of compounds of the present invention. Assays were conducted at rt or at 37° C. […] A decrease in the rate of fluorescence change in the presence of inhibitor is indicative of enzyme inhibition. Such methods are known to one skilled in the art. The results of this assay are expressed as the half-maximal inhibitory concentrations (IC50), or the inhibitory constant, Ki.
Plasma kallikrein determinations were made in 50 mM HEPES buffer at pH 7.4 containing 150 mM NaCl, 5 mM CaCl2), and 0.1% PEG 8000 (polyethylene glycol; Fisher Scientific). […]
Times required to achieve equilibration between enzyme and inhibitor were determined in control experiments. The reactions were performed under linear progress curve conditions and fluorescence increase measured at 405 Ex/510 Em nm. […] IC50 was determined by inflection point from a four parameter logistic curve fit. Ki was calculated using the Cheng Prusoff equation, Ki=IC50/(1+([S]/Km)).

T1 sequence (P03952 391-638 limits assumed): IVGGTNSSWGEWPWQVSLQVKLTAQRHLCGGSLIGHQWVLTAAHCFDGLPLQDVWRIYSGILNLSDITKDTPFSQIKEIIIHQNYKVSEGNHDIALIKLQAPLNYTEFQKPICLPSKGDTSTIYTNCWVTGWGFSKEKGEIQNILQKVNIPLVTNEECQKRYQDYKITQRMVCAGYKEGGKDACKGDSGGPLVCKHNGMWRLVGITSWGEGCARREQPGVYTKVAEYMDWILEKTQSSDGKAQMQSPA
T1 sequence (P03952 20-390 partner limits assumed): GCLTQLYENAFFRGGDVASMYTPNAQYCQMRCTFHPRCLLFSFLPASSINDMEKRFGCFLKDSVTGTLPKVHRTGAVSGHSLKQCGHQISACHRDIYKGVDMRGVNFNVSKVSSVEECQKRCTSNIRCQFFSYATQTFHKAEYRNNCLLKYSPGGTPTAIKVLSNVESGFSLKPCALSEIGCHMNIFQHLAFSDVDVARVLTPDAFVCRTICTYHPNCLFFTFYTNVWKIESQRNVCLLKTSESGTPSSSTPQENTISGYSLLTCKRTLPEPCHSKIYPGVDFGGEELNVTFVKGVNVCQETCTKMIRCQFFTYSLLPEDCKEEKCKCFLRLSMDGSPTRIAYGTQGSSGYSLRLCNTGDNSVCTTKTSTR

Structure (SMILES) | IC50
O=C(Nc1cnn(Cc2ccc(N3CCCC3CO)nc2)c1)c1cncc(-c2c(C(F)F)ccc(Cl)c2F)n1 (stereo not shown) [Example 118, 6-(3-Chloro-6-(difluoromethyl)-2-fluorophenyl)-N-(1-((6-(2-(hydroxymethyl)pyrrolidin-1-yl)pyridin-3-yl)methyl)-1H-pyrazol-4-yl)pyrazine-2-carboxamide] | 12.5 nM
COC[C@@H]1CCCN1c1ccc(Cn2cc(NC(=O)c3cncc(-c4c(C(F)F)ccc(Cl)c4F)n3)cn2)cn1 [Example 120, (S)-6-(3-Chloro-6-(difluoromethyl)-2-fluorophenyl)-N-(1-((6-(2-(methoxymethyl)pyrrolidin-1-yl)pyridin-3-yl)methyl)-1H-pyrazol-4-yl)pyrazine-2-carboxamide] | 17.8 nM
CN(CCO)c1ccc(Cn2cc(NC(=O)c3cncc(-c4c(C(F)F)ccc(Cl)c4F)n3)cn2)cn1 [Example 121, 6-(3-Chloro-6-(difluoromethyl)-2-fluorophenyl)-N-(1-((6-((2-hydroxyethyl)(methyl)amino)pyridin-3-yl)methyl)-1H-pyrazol-4-yl)pyrazine-2-carboxamide] | 18.4 nM
CN(C)C(=O)[C@@H]1CCCN1c1ccc(Cn2cc(NC(=O)c3cncc(-c4c(C(F)F)ccc(Cl)c4F)n3)cn2)cn1 [Example 125, (S)-6-(3-Chloro-6-(difluoromethyl)-2-fluorophenyl)-N-(1-((6-(2-(dimethylcarbamoyl)pyrrolidin-1-yl)pyridin-3-yl)methyl)-1H-pyrazol-4-yl)pyrazine-2-carboxamide] | 28.3 nM
O=C(Nc1cnn(Cc2ccc(N3CC[C@H]3CO)nc2)c1)c1cncc(-c2c(C(F)F)ccc(Cl)c2F)n1 [Example 126, (S)-6-(3-Chloro-6-(difluoromethyl)-2-fluorophenyl)-N-(1-((6-(2-(hydroxymethyl)azetidin-1-yl)pyridin-3-yl)methyl)-1H-pyrazol-4-yl)pyrazine-2-carboxamide] | 30.5 nM
O=C(Nc1cnn(Cc2ccc(N3CC4C(C3)C4(F)F)nc2)c1)c1cncc(-c2c(C(F)F)ccc(Cl)c2F)n1 (stereo not shown) [Example 127, 6-(3-Chloro-6-(difluoromethyl)-2-fluorophenyl)-N-(1-((6-(6,6-difluoro-3-azabicyclo[3.1.0]hexan-3-yl)pyridin-3-yl)methyl)-1H-pyrazol-4-yl)pyrazine-2-carboxamide] | 31.3 nM
O=C(Nc1cnn(Cc2ccc(N3CCNC4(CC4)C3)nc2)c1)c1cncc(-c2c(C(F)F)ccc(Cl)c2F)n1 [Example 128, N-(1-((6-(4,7-Diazaspiro[2.5]octan-7-yl)pyridin-3-yl)methyl)-1H-pyrazol-4-yl)-6-(3-chloro-6-(difluoromethyl)-2-fluorophenyl)pyrazine-2-carboxamide] | 32.2 nM
NC(=O)C1CCCN(c2ccc(Cn3cc(NC(=O)c4cncc(-c5c(C(F)F)ccc(Cl)c5F)n4)cn3)cn2)C1 (stereo not shown) [Example 129, N-(1-((6-(3-Carbamoylpiperidin-1-yl)pyridin-3-yl)methyl)-1H-pyrazol-4-yl)-6-(3-chloro-6-(difluoromethyl)-2-fluorophenyl)pyrazine-2-carboxamide] | 32.8 nM
Cn1cnc(C2CCCN2c2ccc(Cn3cc(NC(=O)c4cncc(-c5c(C(F)F)ccc(Cl)c5F)n4)cn3)cn2)n1 (stereo not shown) [Example 130, 6-(3-Chloro-6-(difluoromethyl)-2-fluorophenyl)-N-(1-((6-(2-(1-methyl-1H-1,2,4-triazol-3-yl)pyrrolidin-1-yl)pyridin-3-yl)methyl)-1H-pyrazol-4-yl)pyrazine-2-carboxamide] | 35 nM
CC(=O)N1CC[C@H]2CN(c3ccc(Cn4cc(NC(=O)c5cncc(-c6c(C(F)F)ccc(Cl)c6F)n5)cn4)cn3)[C@H]2C1 [Example 131, N-(1-((6-((1R,6S)-3-Acetyl-3,8-diazabicyclo[4.2.0]octan-8-yl)pyridin-3-yl)methyl)-1H-pyrazol-4-yl)-6-(3-chloro-6-(difluoromethyl)-2-fluorophenyl)pyrazine-2-carboxamide] | 37.6 nM
O=C(Nc1cnn(Cc2ccc(N3CCC(CO)C3)nc2)c1)c1cncc(-c2c(C(F)F)ccc(Cl)c2F)n1 (stereo not shown) [Example 132, 6-(3-Chloro-6-(difluoromethyl)-2-fluorophenyl)-N-(1-((6-(3-(hydroxymethyl)pyrrolidin-1-yl)pyridin-3-yl)methyl)-1H-pyrazol-4-yl)pyrazine-2-carboxamide] | 49 nM
CC(=O)N1CC[C@@H]2CN(c3ccc(Cn4cc(NC(=O)c5cncc(-c6c(C(F)F)ccc(Cl)c6F)n5)cn4)cn3)[C@@H]2C1 [Example 133, N-(1-((6-((1S,6R)-3-Acetyl-3,8-diazabicyclo[4.2.0]octan-8-yl)pyridin-3-yl)methyl)-1H-pyrazol-4-yl)-6-(3-chloro-6-(difluoromethyl)-2-fluorophenyl)pyrazine-2-carboxamide] | 49.5 nM
O=C(Nc1cnn(Cc2cnc(N3CCCC3CN3CCOCC3)nc2)c1)c1cncc(-c2c(C(F)F)ccc(Cl)c2F)n1 (stereo not shown) [Example 153, 6-(3-Chloro-6-(difluoromethyl)-2-fluorophenyl)-N-(1-((2-(2-(morpholinomethyl)pyrrolidin-1-yl)pyrimidin-5-yl)methyl)-1H-pyrazol-4-yl)pyrazine-2-carboxamide] | 1.1 nM
O=C(Nc1cnn(Cc2cnc(N3CCCC3CNCC(F)F)nc2)c1)c1cncc(-c2c(C(F)F)ccc(Cl)c2F)n1 (stereo not shown) [Example 157, 6-(3-Chloro-6-(difluoromethyl)-2-fluorophenyl)-N-(1-((2-(2-(((2,2-difluoroethyl)amino)methyl)pyrrolidin-1-yl)pyrimidin-5-yl)methyl)-1H-pyrazol-4-yl)pyrazine-2-carboxamide] | 9.3 nM
O=C(Nc1cnn(Cc2cnc(N3CCCC3CN3C[C@H](F)[C@@H](F)C3)nc2)c1)c1cncc(-c2c(C(F)F)ccc(Cl)c2F)n1 (stereo partly drawn) [Example 158, 6-(3-Chloro-6-(difluoromethyl)-2-fluorophenyl)-N-(1-((2-(2-(((35,4S)-3,4-difluoropyrrolidin-1-yl)methyl)pyrrolidin-1-yl)pyrimidin-5-yl)methyl)-1H-pyrazol-4-yl)pyrazine-2-carboxamide] | 9.5 nM
CC(c1cnc(N2CC[C@H]2CN2C[C@H](O)C[C@H]2C)nc1)n1cc(NC(=O)c2cncc(-c3c(C(F)F)ccc(Cl)c3F)n2)cn1 (stereo partly drawn) [Example 164, 6-(3-Chloro-6-(difluoromethyl)-2-fluorophenyl)-N-(1-(1-(2-((S)-2-(((2R,4R)-4-hydroxy-2-methylpyrrolidin-1-yl)methyl)azetidin-1-yl)pyrimidin-5-yl)ethyl)-1H-pyrazol-4-yl)pyrazine-2-carboxamide] | 3.4 nM
CC(c1cnc(N2CC[C@H]2CN2CC(O)C2)nc1)n1cc(NC(=O)c2cncc(-c3c(C(F)F)ccc(Cl)c3F)n2)cn1 (stereo partly drawn) [Example 170, 6-(3-Chloro-6-(difluoromethyl)-2-fluorophenyl)-N-(1-(1-(2-((S)-2-((3-hydroxyazetidin-1-yl)methyl)azetidin-1-yl)pyrimidin-5-yl)ethyl)-1H-pyrazol-4-yl)pyrazine-2-carboxamide] | 1.6 nM
CC(c1cnc(N2CC[C@H]2CN2CC(F)C2)nc1)n1cc(NC(=O)c2cncc(-c3c(C(F)F)ccc(Cl)c3F)n2)cn1 (stereo partly drawn) [Example 171, 6-(3-Chloro-6-(difluoromethyl)-2-fluorophenyl)-N-(1-(1-(2-((S)-2-((3-fluoroazetidin-1-yl)methyl)azetidin-1-yl)pyrimidin-5-yl)ethyl)-1H-pyrazol-4-yl)pyrazine-2-carboxamide] | 4.9 nM
CC(c1cnc(N2CC[C@H]2CN2CC(O)(C3CC3)C2)nc1)n1cc(NC(=O)c2cncc(-c3c(C(F)F)ccc(Cl)c3F)n2)cn1 (stereo partly drawn) [Example 172, 6-(3-Chloro-6-(difluoromethyl)-2-fluorophenyl)-N-(1-(1-(2-((S)-2-((3-cyclopropyl-3-hydroxyazetidin-1-yl)methyl)azetidin-1-yl)pyrimidin-5-yl)ethyl)-1H-pyrazol-4-yl)pyrazine-2-carboxamide] | 1.8 nM
CC(c1cnc(N2CC[C@H]2CN2CC(C)(O)C2)nc1)n1cc(NC(=O)c2cncc(-c3c(C(F)F)ccc(Cl)c3F)n2)cn1 (stereo partly drawn) [Example 174, 6-(3-Chloro-6-(difluoromethyl)-2-fluorophenyl)-N-(1-(1-(2-((S)-2-((3-hydroxy-3-methylazetidin-1-yl)methyl)azetidin-1-yl)pyrimidin-5-yl)ethyl)-1H-pyrazol-4-yl)pyrazine-2-carboxamide] | 2.3 nM
CC(c1cnc(N2CC[C@H]2CN2CCCC(C)(O)C2)nc1)n1cc(NC(=O)c2cncc(-c3c(C(F)F)ccc(Cl)c3F)n2)cn1 (stereo partly drawn) [Example 176, 6-(3-Chloro-6-(difluoromethyl)-2-fluorophenyl)-N-(1-(1-(2-((2S)-2-((3-hydroxy-3-methylpiperidin-1-yl)methyl)azetidin-1-yl)pyrimidin-5-yl)ethyl)-1H-pyrazol-4-yl)pyrazine-2-carboxamide] | 1.4 nM
CC(c1cnc(N2CC[C@H]2CN2CCC[C@@H](O)C2)nc1)n1cc(NC(=O)c2cncc(-c3c(C(F)F)ccc(Cl)c3F)n2)cn1 (stereo partly drawn) [Example 177, 6-(3-Chloro-6-(difluoromethyl)-2-fluorophenyl)-N-(1-(1-(2-((S)-2-(((R)-3-hydroxypiperidin-1-yl)methyl)azetidin-1-yl)pyrimidin-5-yl)ethyl)-1H-pyrazol-4-yl)pyrazine-2-carboxamide] | 1.2 nM

Source: patent US20230416227A1, “PLASMA KALLIKREIN INHIBITORS” (Merck Sharp & Dohme LLC, priority 2020, published 2023)
